Test results: ChEMBL document CHEMBL1201861, “Genomics of Drug Sensitity in Cancer screening data, Wellcome Trust Sanger Institute”

Experiments:
NCI-H1882 = assay: cells; assay type: functional, cell-based, Homo sapiens; settings: Homo sapiens, NCI-H1882;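 note: growth inhibition of the cell line, determined with a viability assay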
Description: SANGER: Inhibition of human NCI-H1882 cell growth in a cell viability assay.

NB7 = assay: cells; assay type: functional, cell-based, Homo sapiens; settings: Homo sapiens, NB7;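 note: growth inhibition of NB7 cells, read out with a cell viability assay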
Description: SANGER: Inhibition of human NB7 cell growth in a cell viability assay.

MONO-MAC-6 = assay: cells; assay type: functional, cell-based, Homo sapiens; settings: Homo sapiens, MONO-MAC-6;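 note: cell viability assay measuring growth inhibition of human MONO-MAC-6 cells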
Description: SANGER: Inhibition of human MONO-MAC-6 cell growth in a cell viability assay.

IMR-5 = assay: cells; assay type: functional, cell-based, Homo sapiens; settings: Homo sapiens, IMR-5;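 note: growth inhibition of human IMR-5 cells, read out with a cell viability assay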
Description: SANGER: Inhibition of human IMR-5 cell growth in a cell viability assay.

LC-1F = assay: cells; assay type: functional, cell-based, Homo sapiens; settings: Homo sapiens, LC-1F;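 note: growth inhibition of human LC-1F cells, read out with a cell viability assay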
Description: SANGER: Inhibition of human LC-1F cell growth in a cell viability assay.

SIG-M5 = assay: cells; assay type: functional, cell-based, Homo sapiens; settings: Homo sapiens, SIG-M5;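 note: cell viability assay read-out, measuring how strongly growth of cultured human SIG-M5 cells is inhibited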
Description: SANGER: Inhibition of human SIG-M5 cell growth in a cell viability assay.

NCI-H1694 = assay: cells; assay type: functional, cell-based, Homo sapiens; settings: Homo sapiens, NCI-H1694;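 note: cell viability assay measuring inhibition of growth in human NCI-H1694 cells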
Description: SANGER: Inhibition of human NCI-H1694 cell growth in a cell viability assay.

NCI-H345 = assay: cells; assay type: functional, cell-based, Homo sapiens; settings: Homo sapiens, NCI-H345;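 note: growth inhibition of NCI-H345 cells measured with a cell viability assay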
Description: SANGER: Inhibition of human NCI-H345 cell growth in a cell viability assay.

NCCIT = assay: SANGER: Inhibition of human NCCIT cell growth in a cell viability assay.; assay type: functional, cell-based; settings: Homo sapiens, NCCIT
YT = assay: cells; assay type: functional, cell-based, Homo sapiens; settings: Homo sapiens, YT
Description: SANGER: Inhibition of human YT cell growth in a cell viability assay.

CA46 = assay: cells; assay type: functional, cell-based, Homo sapiens; settings: Homo sapiens, CA46;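 note: growth inhibition of human CA46 cells, read out by a cell viability assay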
Description: SANGER: Inhibition of human CA46 cell growth in a cell viability assay.

NCI-H716 = assay: cells; assay type: functional, cell-based, Homo sapiens; settings: Homo sapiens, NCI-H716;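 note: growth inhibition of human NCI-H716 cells, measured by a cell viability assay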
Description: SANGER: Inhibition of human NCI-H716 cell growth in a cell viability assay.

WSU-NHL = assay: cells; assay type: functional, cell-based, Homo sapiens; settings: Homo sapiens, WSU-NHL;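 note: growth inhibition of human WSU-NHL cells, read out with a cell viability assay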
Description: SANGER: Inhibition of human WSU-NHL cell growth in a cell viability assay.

Row | SMILES | IC50 (NCI-H1882) [µM] | IC50 (NB7) [µM] | IC50 (MONO-MAC-6) [nM] | IC50 (IMR-5) [µM] | IC50 (LC-1F) [µM] | IC50 (SIG-M5) [nM] | IC50 (NCI-H1694) [µM] | IC50 (NCI-H345) [µM] | IC50 (NCCIT) [µM] | IC50 (YT) [µM] | IC50 (CA46) [µM] | IC50 (NCI-H716) [µM] | IC50 (WSU-NHL) [µM]
1 | Cc1ccc(-c2c(C(=O)CCl)n(CCCO)c3ncnc(N)c23)cc1 | > 4 | > 4 | 3930 | > 4 | > 4 | > 4000 | > 4 | > 4 | > 4 | > 4 | > 4 | > 4 | > 4
2 | C#Cc1cccc(Nc2ncnc3cc(OCCOC)c(OCCOC)cc23)c1 [ERLOTINIB] | > 2 | > 2 | > 2000 | > 2 | 0.606 | > 2000 | > 2 | > 2 | > 2 | > 2 | > 2 | > 2 | > 2
3 | COc1cc2ncn(-c3cc(OCc4ccccc4S(C)(=O)=O)c(C#N)s3)c2cc1OC [GSK-319347A] | > 5 | > 5 | > 5000 | > 5 | > 5 | > 5000 | > 5 | > 5 | > 5 | > 5 | > 5 | > 5 | > 5
4 | N[C@@H](CSC(c1ccccc1)(c1ccccc1)c1ccccc1)C(=O)O [S-TRITYL-L-CYSTEINE] | 2.08 | > 5.12 | 1150 | 1.27 | 3.49 | 2770 | > 5.12 | > 5.12 | 2.39 | > 5.12 | > 5.12 | > 5.12 | > 5.12
5 | CC[C@H](CO)Nc1nc(NCc2ccccc2)c2ncn(C(C)C)c2n1 [SELICICLIB] | > 16 | > 16 | > 16000 | > 16 | > 16 | > 16000 | > 16 | > 16 | 7.55 | > 16 | > 16 | > 16 | > 16
6 | CCN(CC)CCNC(=O)c1c(C)[nH]c(/C=C2\C(=O)Nc3ccc(F)cc32)c1C [SUNITINIB] | > 8 | > 8 | 33.8 | 7.55 | > 8 | 1370 | > 8 | > 8 | > 8 | > 8 | 7.58 | > 8 | > 8
